Tests used:
A. planipennis [1] = assay: Field trapping 2011 experiment 2: (3Z)-lactone, (3Z)-hexenol and trap height factorial, dark green traps; assay type: in vivo, Agrilus planipennis; details: 2×2×2 factorial, lactone 3 mg/lure
Protocol: (§1) Two trapping experiments were conducted in green and white ash plantations (F. pennsylvanica Marsch and F. americana L.) located 40-60 km southeast of Sarnia, Ontario in 2011. Trees were 20-30 yr old, 5-8 m tall, 12-18 cm in diameter, and spaced 2-3 m apart within and between rows. Five sites were used in total: four were green ash and the fifth was a white ash plantation. Trees at four of the sites generally appeared healthy with few or no signs of decline and only a few with obvious signs and symptoms of infestation by A. planipennis. At the fifth site, obvious crown decline and signs of infestation were apparent on about one-quarter of trees.
(§2) Green prism sticky traps (0.30 cm×35.00 cm×58.75 cm) (Synergy Semiochemicals Corp., Burnaby, BC) were used in all field trials, deployed using modified umbrella rig spreaders (Zing Products, Westport, Mass.). Traps were spaced 20-25 m apart and lure treatments replicated in randomized complete block designs. Traps were deployed either using ropes tied between two trees or using a single line over a canopy branch, as described further below for each specific experimental objective. Traps were typically checked every 2 wk and A. planipennis were collected, counted, and sexed.
Experiment 2 was a 2×2×2 factorial experiment designed to test the effects of (3Z)-lactone, (3Z)-hexenol, trap height, and their interactions on numbers of A. planipennis captured on sticky, dark green (540-nm wavelength) (Francese et al 2010a) prism traps. Traps were baited with either (3Z)-lactone, (3Z)-hexenol, (3Z)-lactone+(3Z)-hexenol, or neither compound (unbaited control) and all treatments were deployed both below the canopy or in the mid-canopy. Traps placed below the canopy were suspended from ropes tied between two trees so the trap was 1-1.5 m from either tree and the top of the trap was 1.5-2 m above the ground. Traps in the canopy were deployed from a single line looped over a mid-canopy branch such that traps were 1-1.5 m from the main stem and their tops were 6 m above ground. (3Z)-Lactone was loaded onto rubber septa lures at a dosage of 3 mg/lure. Release rates of the (3Z)-lactone and (3Z)-hexenol were 60-70 μg/day and 50-100 mg/day, respectively at 25° C. Traps were in the field from 8 June-5 August, with one block at one site (Nauvoo Ranch), 5 blocks at a second site (LaSalle, the one white ash plantation), and 4 blocks at a third site (Brook Line). The 3 mg (3Z)-lactone lures were estimated to maintain adequate release rates for a minimum of three weeks and thus were replaced after three weeks; (3Z)-hexenol lures were not replaced during the experiment.
Numbers of A. planipennis captured in the trapping experiments were subjected to ANOVA separately for males and females. […]

A. planipennis [2] = assay: Field trapping 2011 experiment 1: dose-response to (3Z)-lactone with (3Z)-hexenol, dark green traps; assay type: in vivo, Agrilus planipennis; details: in combination with (3Z)-hexenol
Protocol: as §1, §2
The two trapping experiments tested the (3Z)-lactone with and without (3Z)-hexenol, at different dosages and heights within the canopy. Experiment 1 was designed to determine the optimum release rate for attractiveness of (3Z)-lactone to male A. planipennis, in combination with (3Z)-hexenol. Dark green (540-nm wavelength) sticky traps (Francese et al 2010a) were suspended using ropes tied between two trees in the mid-canopy and baited with a (3Z)-hexenol lure at release rate of (50-100 mg/day) (Synergy Semiochemicals, Burnaby, B.C.) plus a rubber septum (Wheaton) loaded with either 0, 0.1 mg, 1.0 mg, 10.0 mg, or 50.0 mg of (3Z)-lactone. Respective release rates of the lactone were estimated as ˜2.4 μg/day; ˜22 μg/day; ˜160 μg/day; and −600 μg/day, based on volatile collections on Super-Q® at 25° C. (Silk et al. 2011). (3Z)-Lactone lures were estimated to last three weeks in the field and were replaced once. Trapping was conducted from 9 June-21 July. Lure treatments were replicated 10 times with eight blocks at one site (Anika Mills) and two blocks at a second site (Nauvoo Ranch). (3Z)-Hexenol lures were not changed during the experiment.
Numbers of A. planipennis captured in the trapping experiments were subjected to ANOVA separately for males and females. In experiment 1, ANOVA was used to test the effect of release rate on captures of females and males. Holm-Sidak comparisons were made between treatments and the control, (3Z)-hexenol alone. In experiment 2, we used the general linear model: mean catch=lactone+GLV+trap height+lactone*trap height+GLV*trap height+lactone*GLV+lactone*GLV*trap height+error, in SAS GLM (SAS Institute 1999-2003). Residuals were tested for homogeneity of variance and normality, and a ln(y+1) transformation was used where necessary. We present the untransformed last squares treatment means and their standard errors, along with statistics (P>F) from ANOVA of transformed data.

O=C1C/C=C\CCCCCCCCO1 [(3Z)-lactone, (3Z)-dodecen-12-olide]
mean capture of males per trap, effect of presence of the lure component (A. planipennis [1]): significantly and positively affected
mean catch of females, effect of the lure component (A. planipennis [1]): not
release rate beyond which captures of males decline (A. planipennis [2]; dark green traps): ca. 160 μg/day
trap capture of males, effect of (3Z)-lactone release rate (A. planipennis [2]; 0-50.0 mg lures, p=0.035): varied significantly with (3Z)-lactone release rate
trap capture of females, effect of (3Z)-lactone release rate (A. planipennis [2]; 0-50.0 mg lures, p=0.315): not influenced by (3Z)-lactone release rate
captures of males compared to (3Z)-hexenol alone, 0.1 mg dose (A. planipennis [2]; 0.1 mg lure, release rate 2.4 μg/day at 25° C., p=0.003): highest
captures of males compared to (3Z)-hexenol alone, 1.0 mg dose (A. planipennis [2]; 1.0 mg lure, p=0.052): marginal increase in captures of males
